Assays:
[1] = test system: hypoxia-induced genes in Hep3B cells; experiment: RNA sequencing of Hep3B cells; format: cell-based, human; details: 5 μM, 1% O2, 24 hours
Method: RNA sequencing (RNA-seq) was performed on 3 biological replicates of Hep3B cells exposed for 24 hours to vehicle at 20% O2, vehicle at 1% O2, or 5 μM 32-134D at 1% O2. […] Overall, 32-134D inhibited the expression of 4,689 genes, of which the 3,326 hypoxia-induced genes represented 71% of the total.
RNA was extracted using TRIzol Reagent. Quantitative real-time PCR was conducted using SYBR Green PCR Master Mix and reactions were run using a Bio-Rad thermal cycler. Primer sequences and reagent sources are listed in Supplemental Table 5. The mRNA expression of target genes was normalized to the expression of 18S rRNA and the fold change (FC) was calculated based on the threshold cycle (Ct) as FC = 2^–Δ(ΔCt), where ΔCt = Cttarget gene – Ct18S rRNA and Δ(ΔCt) = ΔCttreatment – ΔCtcontrol. For RNA-seq, total RNA was isolated and treated with DNase (Qiagen). […] An automated data analysis pipeline run in the Genialis platform consisted of the following: Sequence quality checks were performed on raw and trimmed reads with FastQC. Bbduk was used to trim adapters and filter out poor quality reads. Trimmed reads were then mapped to the STAR index (ENSEMBL 100) reference genome using the STAR ([93]) aligner. Gene expression levels were quantified with featureCounts ([94]), and differential gene expression analyses were performed with DESeq2 ([95]). […]

[2] = test system: HIF-1α and HIF-2α protein; experiment: Immunoblot of nuclear extracts of Hep3B cells; format: cell-based, human; details: 5 μM, 24 hours
Method: Figure 1 Identification of HIF inhibitors. (A) Hep3B-c1 cells were stably transfected with firefly luciferase (FLuc) reporter p2.1, which contains a hypoxia-response element (HRE), and Renilla luciferase (RLuc) reporter pSVR. (B) Hep3B-c1 cells were incubated with vehicle (Veh; 0.1% DMSO; blue bars) or 10 μM 32-134D (red bars) at 20% O2 (n = 6) or 1% O2 (n = 12) for 24 hours. Cell lysates were assayed for Fluc/Rluc activity (mean ± SEM); *P < 0.05 versus vehicle (χ^2 test). (C) Chemical structures and IC50 values for HIF inhibitors. (D and E) Hep3B cells were exposed to 20% O2 with vehicle, or 1% O2 with vehicle (blue bar), 32-134D (red bars), 33-063 (green bars), or PT2385 (brown bars) for 24 hours and CA9 (D) and EPO (E) mRNAs were quantified by RT-qPCR. […] (F) Hep3B cells were exposed to 20% or 1% O2 in the presence of vehicle or 1% O2 in the presence of 5 μM 32-134D (n = 3 each) for 24 hours. RNA sequencing identified genes with hypoxia-induced expression (blue circle) and genes that were inhibited by 32-134D (orange circle), based on FDR < 0.05 and fold change > 1.5. (G) Hep3B cells were exposed to 20% or 1% O2 for 24 hours in the presence of vehicle or 5 μM 32-134D, nuclear extracts were prepared, and immunoblot assays were performed. […]

[3] = Hematologic indices, serum EPO and organ histology in mice; format: in vivo, C57BL/6J mice; details: 14 days
Method: To investigate the effect of 32-134D on erythropoiesis, C57BL/6J mice (n = 4 per group) received a daily intraperitoneal injection of vehicle or 32-134D at a dose of 40 or 80 mg/kg/day for 14 days.
Figure 8 Effect of 32-134D on red blood cell indices. Mice (n = 4 per group) were treated with vehicle (V) or 32-134D (40 mg/kg/day) for 14 days and peripheral blood was analyzed for red blood cell count (RBC), hemoglobin (Hgb), hematocrit (Hct), reticulocytes, mean corpuscular hemoglobin (MCH), mean corpuscular hemoglobin concentration (MCHC), mean corpuscular volume (MCV), and absolute reticulocyte count (A) or EPO levels in serum (B).
To analyze blood parameters, male C57BL/6J mice were treated with vehicle or 32-134D by daily intraperitoneal injection for 14 days. Blood was collected by cardiac puncture into EDTA-coated tubes for analysis of hematologic indices at the Johns Hopkins Mouse Phenotyping Core. Blood collected into noncoated tubes was allowed to clot for 2 hours at room temperature, centrifuged at 2000g for 20 minutes, and serum samples were subjected to EPO ELISA according to the manufacturer’s instructions (Supplemental Table 6). Organs including heart, liver, kidney, small intestine, colon, lungs, and brain were harvested, fixed in formalin for 24 hours, and embedded in paraffin for histopathological investigation. Hematoxylin and eosin staining was performed by the Johns Hopkins Reference Histology Services.
Supplemental Figure 9. Normal organ histology in mice treated with 32-134D. Mice were administered vehicle or 32-134D (40 or 80 mg/kg) by daily intraperitoneal injection for 14 days and tissue sections from the indicated organs were stained with hematoxylin and eosin. Scale bar = 20 µm.
(1 picture or pasted object on this page, not shown here)

Compound: Brc1ccc2c(-c3csc(-c4c[nH]c5c(Br)cccc45)n3)c[nH]c2c1 [Compound 32-134D]
- total number of genes whose expression was inhibited [1]: 4,689 genes
- number of hypoxia-induced genes whose expression was inhibited ([1]; of 3,849 hypoxia-induced mRNAs): 3,326 genes
- HIF-1α protein expression [2]: inhibited
- histology of brain, colon, heart, kidney, liver, lungs, and small intestine ([3]; 40 or 80 mg/kg ip): no changes
- red blood cell count, hemoglobin, hematocrit, reticulocyte count, MCV, MCH, MCHC versus vehicle ([3]; 40 or 80 mg/kg/day ip): not significantly different
- serum EPO levels versus vehicle ([3]; ELISA): no significant difference

— publication PMC9057582, “HIF inhibitor 32-134D eradicates murine hepatocellular carcinoma in combination with anti-PD1 therapy” (The Journal of Clinical Investigation, 2022)
